# How the values were obtained:
# Experiment in all cases: Kinase panel enzymatic inhibition assay (Nanosyn)
# Format in all cases: biochemical
# ITK = target: T1, ITK (Homo sapiens, UniProt Q08881); conditions: ATP at Km; 30-minute pre-incubation; read-out: kinase inhibition in terms of IC50, ITK
# T1 construct: Nanosyn (contract laboratory that ran the panel)
# T1 sequence (Q08881 1-620): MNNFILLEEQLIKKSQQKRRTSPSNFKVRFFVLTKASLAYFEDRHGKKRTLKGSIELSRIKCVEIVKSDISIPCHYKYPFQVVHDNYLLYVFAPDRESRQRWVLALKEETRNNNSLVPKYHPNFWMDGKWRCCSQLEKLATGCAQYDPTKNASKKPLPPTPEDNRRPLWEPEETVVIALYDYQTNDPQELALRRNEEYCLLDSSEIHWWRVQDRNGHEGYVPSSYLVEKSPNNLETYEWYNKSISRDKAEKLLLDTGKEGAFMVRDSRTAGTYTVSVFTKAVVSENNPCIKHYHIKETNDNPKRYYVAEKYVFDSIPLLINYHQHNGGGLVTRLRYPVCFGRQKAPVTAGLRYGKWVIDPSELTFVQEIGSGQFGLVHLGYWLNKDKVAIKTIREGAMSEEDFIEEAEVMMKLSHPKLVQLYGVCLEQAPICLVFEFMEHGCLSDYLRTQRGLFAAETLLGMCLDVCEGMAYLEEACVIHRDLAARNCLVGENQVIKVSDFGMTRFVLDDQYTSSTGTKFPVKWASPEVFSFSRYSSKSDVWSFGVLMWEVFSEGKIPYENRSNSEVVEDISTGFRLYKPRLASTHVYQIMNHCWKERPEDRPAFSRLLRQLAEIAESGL
# Procedure: (§1) The disclosed compounds were tested for activity against a panel of at least 300 kinases. Kinase panel screening was conducted by Nanosyn (Santa Clara, CA 95051) using an enzymatic inhibition assay accepted as valid by those skilled in the art (e.g., the Caliper LabChip® mobility shift assay, an ADP detection assay, or time-resolved fluorescence detection technology. Compounds were screened at a concentration of 5 μM using an ATP concentration at the Km for each of the respective kinases and a 30-minute pre-incubation time-point.
# (§2) In Table 1 and 2, kinase inhibition is classified by: A=95% or greater, B=90%-94%, C=80%-89%, and D=79% and less with a compound concentration of 5 JIM. In Table 3 and 4, kinase inhibition is reported in terms of IC50 values corresponding to A=less than 500 nm, B=500 nm to less than 1 μM, C=1 μM to less than 10 μM, and D=10 μM or greater using a compound concentration of 5 μM.
# PAK4 = target: T2, PAK4 (Homo sapiens, UniProt O96013); conditions: ATP at Km; 30-minute pre-incubation; read-out: kinase inhibition in terms of IC50, PAK4
# T2 construct: Nanosyn (contract laboratory that ran the panel)
# Procedure: as §1, §2
# PAK2 = target: T3, PAK2 (Homo sapiens, UniProt Q13177); conditions: ATP at Km; 30-minute pre-incubation; read-out: kinase inhibition in terms of IC50, PAK2
# T3 construct: Nanosyn (contract laboratory that ran the panel)
# Procedure: as §1, §2
# WEE1 = target: T4, WEE1 (Homo sapiens, UniProt P30291); conditions: ATP at Km; 30-minute pre-incubation; read-out: kinase inhibition in terms of IC50, WEE1
# T4 construct: purchased Nanosyn
# Procedure: as §1, §2
# PAK1 = target: T5, PAK1 (Homo sapiens, UniProt Q13153); conditions: ATP at Km; 30-minute pre-incubation; read-out: kinase inhibition in terms of IC50, PAK1
# T5 construct: Nanosyn (contract laboratory that ran the panel)
# Procedure: as §1, §2
# TYK2 = target: T6, TYK2 (Homo sapiens, UniProt P29597); conditions: ATP at Km; 30-minute pre-incubation; read-out: kinase inhibition in terms of IC50, TYK2
# T6 construct: purchased Nanosyn
# Procedure: as §1, §2
# JAK3 = target: T7, JAK3 (Homo sapiens, UniProt P52333); conditions: ATP at Km; 30-minute pre-incubation; read-out: kinase inhibition in terms of IC50, JAK3
# T7 construct: Nanosyn (contract laboratory that ran the panel)
# T7 sequence (P52333 1-1124): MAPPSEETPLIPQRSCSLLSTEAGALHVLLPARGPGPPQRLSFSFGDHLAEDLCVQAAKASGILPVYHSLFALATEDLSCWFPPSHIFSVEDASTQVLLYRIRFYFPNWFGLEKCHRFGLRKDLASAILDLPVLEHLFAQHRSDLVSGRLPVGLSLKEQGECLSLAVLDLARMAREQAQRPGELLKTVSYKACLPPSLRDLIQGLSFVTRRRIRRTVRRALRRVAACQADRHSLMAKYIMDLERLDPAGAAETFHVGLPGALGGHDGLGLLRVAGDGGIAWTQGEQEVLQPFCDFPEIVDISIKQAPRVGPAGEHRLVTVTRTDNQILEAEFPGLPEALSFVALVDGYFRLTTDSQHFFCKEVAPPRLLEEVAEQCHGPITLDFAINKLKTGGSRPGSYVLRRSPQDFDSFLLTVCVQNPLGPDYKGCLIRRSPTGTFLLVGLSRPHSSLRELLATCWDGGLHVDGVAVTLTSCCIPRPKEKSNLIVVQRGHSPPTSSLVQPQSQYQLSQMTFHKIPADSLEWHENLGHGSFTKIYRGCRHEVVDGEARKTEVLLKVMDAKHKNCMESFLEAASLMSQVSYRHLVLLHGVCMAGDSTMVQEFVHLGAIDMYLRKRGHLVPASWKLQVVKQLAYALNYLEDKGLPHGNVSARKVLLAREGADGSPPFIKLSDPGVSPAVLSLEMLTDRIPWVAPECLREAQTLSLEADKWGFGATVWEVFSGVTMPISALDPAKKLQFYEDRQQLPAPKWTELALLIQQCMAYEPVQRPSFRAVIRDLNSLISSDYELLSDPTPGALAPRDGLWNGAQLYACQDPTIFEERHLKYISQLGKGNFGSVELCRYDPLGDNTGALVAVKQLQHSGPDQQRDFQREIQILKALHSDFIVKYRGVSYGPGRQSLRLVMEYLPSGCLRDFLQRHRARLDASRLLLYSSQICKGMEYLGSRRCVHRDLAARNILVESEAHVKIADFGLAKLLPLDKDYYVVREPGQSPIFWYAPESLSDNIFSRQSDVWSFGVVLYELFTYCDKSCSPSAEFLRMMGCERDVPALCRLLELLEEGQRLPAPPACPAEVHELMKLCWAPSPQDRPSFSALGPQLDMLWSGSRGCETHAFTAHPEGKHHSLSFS
# Procedure: as §1, §2
# T5 sequence (Q13153 whole entry): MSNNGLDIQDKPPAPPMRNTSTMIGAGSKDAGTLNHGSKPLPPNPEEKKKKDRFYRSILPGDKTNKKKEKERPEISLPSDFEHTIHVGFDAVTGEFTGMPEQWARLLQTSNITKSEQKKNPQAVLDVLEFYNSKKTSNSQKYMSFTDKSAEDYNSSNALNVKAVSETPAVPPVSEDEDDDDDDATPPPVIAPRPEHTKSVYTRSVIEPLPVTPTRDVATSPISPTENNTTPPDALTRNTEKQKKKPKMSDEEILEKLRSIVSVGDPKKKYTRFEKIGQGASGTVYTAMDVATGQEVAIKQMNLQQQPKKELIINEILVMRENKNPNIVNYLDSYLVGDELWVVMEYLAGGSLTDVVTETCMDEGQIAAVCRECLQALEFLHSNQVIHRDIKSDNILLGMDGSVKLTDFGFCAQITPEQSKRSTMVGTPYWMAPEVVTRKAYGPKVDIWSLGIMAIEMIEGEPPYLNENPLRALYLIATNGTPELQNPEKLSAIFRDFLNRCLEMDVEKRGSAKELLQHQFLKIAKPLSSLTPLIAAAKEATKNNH
# T3 sequence (Q13177 whole entry): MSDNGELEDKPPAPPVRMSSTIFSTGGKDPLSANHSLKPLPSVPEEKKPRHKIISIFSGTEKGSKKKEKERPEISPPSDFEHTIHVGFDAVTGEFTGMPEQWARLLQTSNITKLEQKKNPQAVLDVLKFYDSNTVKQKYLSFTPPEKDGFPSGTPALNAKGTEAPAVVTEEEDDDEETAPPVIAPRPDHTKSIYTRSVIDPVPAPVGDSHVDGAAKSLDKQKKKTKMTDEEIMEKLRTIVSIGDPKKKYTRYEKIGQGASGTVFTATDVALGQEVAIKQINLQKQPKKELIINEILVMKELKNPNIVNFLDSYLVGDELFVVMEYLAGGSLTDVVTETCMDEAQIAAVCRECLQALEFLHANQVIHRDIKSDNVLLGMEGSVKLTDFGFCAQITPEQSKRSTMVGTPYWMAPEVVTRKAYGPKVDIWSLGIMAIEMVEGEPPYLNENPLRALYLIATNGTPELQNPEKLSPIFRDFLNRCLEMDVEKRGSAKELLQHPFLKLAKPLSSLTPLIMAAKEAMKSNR
# T2 sequence (O96013 whole entry): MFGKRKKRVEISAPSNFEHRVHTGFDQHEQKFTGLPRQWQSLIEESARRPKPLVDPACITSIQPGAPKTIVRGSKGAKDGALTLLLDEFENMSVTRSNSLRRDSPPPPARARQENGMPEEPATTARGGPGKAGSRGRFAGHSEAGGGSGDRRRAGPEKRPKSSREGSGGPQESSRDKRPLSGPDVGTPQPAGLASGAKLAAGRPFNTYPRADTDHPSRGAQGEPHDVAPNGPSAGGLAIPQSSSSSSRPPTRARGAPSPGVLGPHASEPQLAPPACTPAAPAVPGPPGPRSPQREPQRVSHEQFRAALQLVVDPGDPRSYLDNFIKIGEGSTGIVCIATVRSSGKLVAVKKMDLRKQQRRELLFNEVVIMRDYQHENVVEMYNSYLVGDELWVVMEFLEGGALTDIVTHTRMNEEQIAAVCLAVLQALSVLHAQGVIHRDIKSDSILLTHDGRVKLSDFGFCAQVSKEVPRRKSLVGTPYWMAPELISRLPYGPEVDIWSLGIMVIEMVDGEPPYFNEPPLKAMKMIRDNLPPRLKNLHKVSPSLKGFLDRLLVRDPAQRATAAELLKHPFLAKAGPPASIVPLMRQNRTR
# T6 sequence (P29597 whole entry): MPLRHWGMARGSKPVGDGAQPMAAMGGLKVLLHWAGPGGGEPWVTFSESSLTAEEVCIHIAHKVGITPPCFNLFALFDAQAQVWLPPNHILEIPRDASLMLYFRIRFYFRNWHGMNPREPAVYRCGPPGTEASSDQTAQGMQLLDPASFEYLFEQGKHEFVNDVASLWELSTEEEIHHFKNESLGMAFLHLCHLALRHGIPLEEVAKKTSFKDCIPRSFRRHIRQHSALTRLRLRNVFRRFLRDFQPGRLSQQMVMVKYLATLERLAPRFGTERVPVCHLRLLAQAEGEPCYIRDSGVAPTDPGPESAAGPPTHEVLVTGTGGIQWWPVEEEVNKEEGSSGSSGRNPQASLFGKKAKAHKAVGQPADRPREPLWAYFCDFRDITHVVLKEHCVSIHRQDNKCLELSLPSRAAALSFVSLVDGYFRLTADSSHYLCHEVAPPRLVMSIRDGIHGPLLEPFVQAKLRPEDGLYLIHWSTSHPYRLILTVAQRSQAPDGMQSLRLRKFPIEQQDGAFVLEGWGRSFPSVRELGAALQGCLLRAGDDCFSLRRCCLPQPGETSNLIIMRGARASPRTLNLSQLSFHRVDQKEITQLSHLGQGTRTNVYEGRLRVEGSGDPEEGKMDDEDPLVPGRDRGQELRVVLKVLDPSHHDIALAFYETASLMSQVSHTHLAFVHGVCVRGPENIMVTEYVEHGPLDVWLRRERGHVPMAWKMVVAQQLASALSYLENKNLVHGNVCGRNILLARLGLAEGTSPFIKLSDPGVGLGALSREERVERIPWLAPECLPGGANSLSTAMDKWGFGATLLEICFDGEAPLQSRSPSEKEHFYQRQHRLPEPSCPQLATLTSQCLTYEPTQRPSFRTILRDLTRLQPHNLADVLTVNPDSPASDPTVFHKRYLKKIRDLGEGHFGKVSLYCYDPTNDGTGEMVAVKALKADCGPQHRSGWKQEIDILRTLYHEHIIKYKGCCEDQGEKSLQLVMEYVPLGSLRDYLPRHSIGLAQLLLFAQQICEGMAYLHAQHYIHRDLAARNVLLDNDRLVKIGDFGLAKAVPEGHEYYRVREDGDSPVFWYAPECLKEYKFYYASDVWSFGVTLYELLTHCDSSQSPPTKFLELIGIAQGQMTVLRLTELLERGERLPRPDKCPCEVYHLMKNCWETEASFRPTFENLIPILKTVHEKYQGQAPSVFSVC
# T4 sequence (P30291 whole entry): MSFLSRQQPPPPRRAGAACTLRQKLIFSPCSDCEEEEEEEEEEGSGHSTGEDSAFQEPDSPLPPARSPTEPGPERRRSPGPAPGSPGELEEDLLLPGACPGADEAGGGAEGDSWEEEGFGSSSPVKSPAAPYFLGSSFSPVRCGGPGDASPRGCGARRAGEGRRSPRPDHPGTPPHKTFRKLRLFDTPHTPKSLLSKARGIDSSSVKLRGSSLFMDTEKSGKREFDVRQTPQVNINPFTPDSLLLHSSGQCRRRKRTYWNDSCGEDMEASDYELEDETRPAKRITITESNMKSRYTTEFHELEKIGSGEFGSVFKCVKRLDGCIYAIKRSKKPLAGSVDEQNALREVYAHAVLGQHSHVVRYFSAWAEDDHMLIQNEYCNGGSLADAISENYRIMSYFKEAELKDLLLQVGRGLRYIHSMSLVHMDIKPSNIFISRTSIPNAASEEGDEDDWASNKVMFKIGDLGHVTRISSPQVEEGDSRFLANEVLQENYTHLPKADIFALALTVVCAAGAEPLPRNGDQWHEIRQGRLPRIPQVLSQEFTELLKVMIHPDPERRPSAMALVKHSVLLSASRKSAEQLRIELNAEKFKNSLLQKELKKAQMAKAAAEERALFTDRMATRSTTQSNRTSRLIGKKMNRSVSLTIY
smiles,measurement,setting,value
"Cc1ccc(NC(=O)c2ccn(-c3ccc(F)cc3)n2)cc1Nc1nccc(-c2cccnc2)n1 [Ex75, 1-(4-fluorophenyl)-N-(4-methyl-3-((4-(pyridin-3-yl)pyrimidin-2-yl)amino)phenyl)-1H-pyrazole-3-carboxamide]",IC50,ITK,≥ 10 µM
"CNc1ncc2cc(-c3cc(NC(=O)c4cc(S(C)(=O)=O)n(-c5ccc(F)cc5)n4)ccc3Cl)c(=O)n(C)c2n1 [Ex76, N-(4-chloro-3-(8-methyl-2-(methylamino)-7-oxo-7,8-dihydropyrido[2,3-d]pyrimidin-6-yl)phenyl)-1-(4-fluorophenyl)-5-(methylsulfonyl)-1H-pyrazole-3-carboxamide]",IC50,PAK4,1 to 10 µM
same,IC50,PAK2,≥ 10 µM
same,IC50,WEE1,≥ 10 µM
same,IC50,PAK1,≥ 10 µM
"CNc1ncc2cc(-c3cc(NC(=O)c4ccn(-c5ccc(F)cc5)n4)c(F)cc3C)c(C)nc2n1 [Ex85, N-(2-fluoro-4-methyl-5-(7-methyl-2-(methylamino)pyrido[2,3-d]pyrimidin-6-yl)phenyl)-1-(4-fluorophenyl)-1H-pyrazole-3-carboxamide]",IC50,PAK2,≥ 10 µM
same,IC50,PAK1,≥ 10 µM
"Cc1cnc2[nH]cc(Cc3ccc(NC(=O)c4cc(S(C)(=O)=O)n(-c5ccc(F)cc5)n4)nc3F)c2c1 [Ex87, N-(6-fluoro-5-((5-methyl-1H-pyrrolo[2,3-b]pyridin-3-yl)methyl)pyridin-2-yl)-1-(4-fluorophenyl)-5-(methylsulfonyl)-1H-pyrazole-3-carboxamide]",IC50,TYK2,≥ 10 µM
same,IC50,JAK3,≥ 10 µM

# From patent US20240400577A1, “MODULATORS OF PROTEIN KINASES” (VIBLIOME THERAPEUTICS, LLC, priority 2021, published 2024)
